Results published in patent US9359297B2, “Spirolactam derivatives and uses of same” (H. Lundbeck A/S, priority 2009, dated 2016).
Read-outs that look alike come from different tables or passages of the source.

How the values were obtained:
[1] = test system: Male Rj: Wistar (Hans) rats; test: Vogel Conflict Test (punished drinking); format: in vivo; conditions: rat
Description: The “Vogel Conflict Test” as described by Vogel et al. [Psychopharmacologia, 1971, 21, 1-7] was used to detect anxiolytic activity of a compound of formula (I) because anxiolytics increase punished drinking. In the test, rats were deprived of water for approximately 48 hours and were then placed individually into a transparent Plexiglas® enclosure (15×32×34 cm) with a floor consisting of stainless steel bars (0.4 cm) spaced 1 cm apart. The back wall of the enclosure was made of opaque Plexiglas® thereby concealing the observer from the experimental animal. In the center of the opposite wall, 5 cm above the floor, a metal water spout protruded into the cage and was connected to one pole of a shock generator (Apelex: Type 011346). The other pole of the shock generator was connected to the metal grid floor.
The rat was left to explore until it found the water spout. Then, every time it drank, it received a slight electric shock (1.7 mA, 1 s) 2 seconds after it started lapping. The number of punished drinks was counted during a 3 minute test. The test was performed blind with 10 rats per group. Testing included multiple tests using reference compounds and a compound of formula (I) that were prepared and administered as described below in the LES test. Male Rj: Wistar (Hans) rats as described therein were used after acclimatization conditions were achieved. Data was analyzed by comparing treated groups with appropriate controls using unpaired Student's t tests.

[2] = molecular target: T1, human metabotropic glutamate receptor 5 (hmGluR5) (Homo sapiens, UniProt P41594); test: Calcium mobilization (FLIPR) assay for negative allosteric modulation, EC80 glutamate, hmGluR5 in HEK 293; format: cell-based; conditions: HEK293; hmGluR5, inhibition of EC80 glutamate response; read-out: FLIPR maximum inhibition
T1 construct: expressed in transfected cells
Outline: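 Stably transfected HEK 293 cells, Fluo-4-loaded, stimulated with EC80 glutamate plus test compound in HBSS/20 mM HEPES pH 7.4 with probenecid; FLIPR fluorescence read over 3 min at room temperature. Basal-subtracted maximum fluorescence change fitted by Hill equation; negative modulation seen as concentration-dependent inhibition of the EC80 response.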

[3] = molecular target: mGluR5 (allosteric site, [3H]MPEP) (Homo sapiens, UniProt P41594); test: [3H]MPEP radioligand filtration binding assay on membrane homogenates; conditions: 5 nM [3H]MPEP; Ki from IC50 by Cheng and Prusoff equation
Description: Binding assays were performed as described in [J. A. O'Brien et al. Mol. Pharmacol., 2003, 64, 731-740] with slight modifications. Briefly, after thawing, the membrane homogenates were resuspended in 50 mM Tris-HCl, 0.9% NaCl binding buffer at pH 7.4 to a final assay concentration of 40 μg protein/well for [^3H]2-methyl-6-phenylethynyl-pyridine ([^3H] MPEP) (American Radiolabeled Chemicals, Inc., St. Louis, Mo.) filtration binding. Incubations included 5 nM [^3H] MPEP, membranes and either buffer or varying concentrations of compound. Samples were incubated for 60 min at room temperature with shaking. Non-specific binding was defined with 10 μM MPEP. After incubation, samples were filtered over a GF/C filter (presoaked in 0.25% polyethyleneimine (PEI)) and then washed 4 times using a Tomtec® Harvester 96® Mach III cell harvester (Tomtec, Hamden, Conn.) with 0.5 mL ice-cold 50 mM Tris-HCl (pH 7.4).
IC50 values were derived from the inhibition curve and Ki values were calculated according to the Cheng and Prusoff equation of Ki=IC50/(1+[L]/Kd) described in [Y. Cheng and W. H. Prusoff Biochem. Pharmacol. 1973, 22, 3099-3108] where [L] is the concentration of radioligand and Kd is its dissociation constant at the receptor, derived from the saturation isotherm.

[4] = molecular target: T2, rat metabotropic glutamate receptor 5 (rmGluR5) (Rattus norvegicus, UniProt P31424); test: Calcium mobilization (FLIPR) assay for negative allosteric modulation, EC80 glutamate, rmGluR5 in HEK 293; format: cell-based; conditions: HEK293; rmGluR5, inhibition of EC80 glutamate response; read-out: FLIPR maximum inhibition
T2 construct: expressed in transfected cells
Description: The cDNA for rat metabotropic glutamate receptor 5 (rmGluR5) and the cDNA for human metabotropic glutamate receptor 5 (hmGluR5) were generous gifts from S. Nakanishi (Kyoto University, Kyoto, Japan). The rmGluR5 or hmGluR5 was stably expressed in a HEK 293 cell line and grown in Dulbecco's Modified Eagle Medium (DMEM) (Invitrogen, Carlsbad, Calif.) with supplements (10% bovine calf serum, 4 mM glutamine, 100 units/mL penicillin, 100 μg/mL streptomycin and 0.75 mM G1418) at 37° C., 5% CO2. Twenty-four hours prior to assay, cells were seeded into 384-well black wall microtiter plates coated with poly-D-lysine. Just prior to assay, media was aspirated and cells dye-loaded (25 μL/well) with 3 μM Fluo-4/0.01% pluronic acid in assay buffer (Hank's Balanced Saline Solution (HBSS)): 150 mM NaCl, 5 mM KCl, 1 mM CaCl2, 1 mM MgCl2, plus 20 mM N-2-Hydroxyethylpiperazine-N′-2-ethanesulfonic acid (HEPES), pH 7.4, 0.1% bovine serum albumin (BSA) and 2.5 mM probenicid) for 1 hour in 5% CO2 at 37° C. After excess dye was discarded, cells were washed in assay buffer and layered with a final volume equal to 30 μL/well. Basal fluorescence is monitored in a fluorometric imaging plate reader (FLIPR) (Molecular Devices, Sunnyvale, Calif.) with an excitation wavelength of 488 nm and an emission range of 500 to 560 nm. Laser excitation energy was adjusted so that basal fluorescence readings were approximately 10,000 relative fluorescent units. Cells were stimulated with an EC20 or an EC80 concentration of glutamate in the presence of a compound to be tested, both diluted in assay buffer, and relative fluorescent units were measured at defined intervals (exposure=0.6 sec) over a 3 min period at room temperature. Basal readings derived from negative controls were subtracted from all samples. Maximum change in fluorescence was calculated for each well. Concentration-response curves derived from the maximum change in fluorescence were analyzed by nonlinear regression (Hill equation). A negative modulator can be identified from these concentration-response curves if a compound produces a concentration dependent inhibition of the EC80 glutamate response.

C57BL/6NTac mice = conditions: three weeks treatment, cited from earlier work
male CD1 mice = test: Mouse marble burying (mMB) assay; format: in vivo; conditions: 30 mpk (sc), FIG. 1
Text: More specifically for the mMB testing, adult, male CD1 mice (Charles River Laboratories (Kingston, N.Y.)), weighing 25 to 30 g, were used. All animals were group-housed in a standard colony room with a 12:12 light/dark cycle (lights on at 6:00 am) for at least one week prior to testing. Food and water were provided ad libitum. Animals were weighed, tail marked, and randomly assigned to treatment groups before testing.
For each test, sixty minutes after the injection of vehicle or test compound, or 30 min after injection of the positive control, buspirone, mice were individually placed into test cages containing 1.5 in of Aspen bedding (PWI brand) and two rows of 10 marbles (20 marbles per test cage total). Filter tops were used to cover each test cage. Thirty minutes later, mice were removed from test cages and returned to their home cages. The number of fully visible marbles (less than ⅔ covered with bedding) were counted and subtracted from 20 to arrive at the number of marbles buried. Twelve mice were tested per group.
Testing included multiple tests with each test performed to evaluate buspirone hydrochloride (BUS; Sigma Aldrich) (positive control) and/or a compound of formula (I). […] Doses were measured in mg drug (salt form) per kg body weight. Data was analyzed using one-way ANOVA with post-hoc Dunnett's test.

Sequence of mGluR5 (allosteric site, [3H]MPEP) (P41594 21-1212): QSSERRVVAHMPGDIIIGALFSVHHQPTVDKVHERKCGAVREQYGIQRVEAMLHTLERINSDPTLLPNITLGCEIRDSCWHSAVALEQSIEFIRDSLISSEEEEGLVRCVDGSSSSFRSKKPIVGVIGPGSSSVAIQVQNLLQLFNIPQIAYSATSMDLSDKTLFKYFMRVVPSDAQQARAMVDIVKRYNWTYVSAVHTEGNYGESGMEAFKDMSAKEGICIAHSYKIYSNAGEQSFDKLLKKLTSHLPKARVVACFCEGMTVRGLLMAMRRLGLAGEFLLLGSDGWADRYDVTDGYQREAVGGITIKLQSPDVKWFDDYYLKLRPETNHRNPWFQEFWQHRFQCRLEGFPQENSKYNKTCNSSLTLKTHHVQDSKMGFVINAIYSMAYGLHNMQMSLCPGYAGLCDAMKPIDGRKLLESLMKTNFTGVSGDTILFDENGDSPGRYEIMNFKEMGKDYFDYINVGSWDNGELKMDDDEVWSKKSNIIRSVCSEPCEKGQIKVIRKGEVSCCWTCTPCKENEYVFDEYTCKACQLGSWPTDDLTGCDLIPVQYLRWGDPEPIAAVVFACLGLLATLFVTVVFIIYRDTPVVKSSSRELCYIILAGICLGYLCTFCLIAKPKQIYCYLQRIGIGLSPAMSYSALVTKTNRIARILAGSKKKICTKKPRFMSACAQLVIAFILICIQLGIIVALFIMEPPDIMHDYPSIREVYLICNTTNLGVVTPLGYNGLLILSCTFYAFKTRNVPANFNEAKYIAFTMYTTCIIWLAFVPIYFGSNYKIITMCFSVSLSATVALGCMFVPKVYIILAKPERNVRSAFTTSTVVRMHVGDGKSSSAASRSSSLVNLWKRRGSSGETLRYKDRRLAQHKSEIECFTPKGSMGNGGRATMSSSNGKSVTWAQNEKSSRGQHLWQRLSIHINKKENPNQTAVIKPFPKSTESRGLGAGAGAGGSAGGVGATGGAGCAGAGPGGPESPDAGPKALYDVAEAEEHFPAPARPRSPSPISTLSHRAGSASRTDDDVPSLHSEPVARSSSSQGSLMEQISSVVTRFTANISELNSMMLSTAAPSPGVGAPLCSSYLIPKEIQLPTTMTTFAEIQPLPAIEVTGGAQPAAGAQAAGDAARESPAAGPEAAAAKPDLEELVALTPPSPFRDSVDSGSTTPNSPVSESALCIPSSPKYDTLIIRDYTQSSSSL
T2 sequence (P31424 21-1203): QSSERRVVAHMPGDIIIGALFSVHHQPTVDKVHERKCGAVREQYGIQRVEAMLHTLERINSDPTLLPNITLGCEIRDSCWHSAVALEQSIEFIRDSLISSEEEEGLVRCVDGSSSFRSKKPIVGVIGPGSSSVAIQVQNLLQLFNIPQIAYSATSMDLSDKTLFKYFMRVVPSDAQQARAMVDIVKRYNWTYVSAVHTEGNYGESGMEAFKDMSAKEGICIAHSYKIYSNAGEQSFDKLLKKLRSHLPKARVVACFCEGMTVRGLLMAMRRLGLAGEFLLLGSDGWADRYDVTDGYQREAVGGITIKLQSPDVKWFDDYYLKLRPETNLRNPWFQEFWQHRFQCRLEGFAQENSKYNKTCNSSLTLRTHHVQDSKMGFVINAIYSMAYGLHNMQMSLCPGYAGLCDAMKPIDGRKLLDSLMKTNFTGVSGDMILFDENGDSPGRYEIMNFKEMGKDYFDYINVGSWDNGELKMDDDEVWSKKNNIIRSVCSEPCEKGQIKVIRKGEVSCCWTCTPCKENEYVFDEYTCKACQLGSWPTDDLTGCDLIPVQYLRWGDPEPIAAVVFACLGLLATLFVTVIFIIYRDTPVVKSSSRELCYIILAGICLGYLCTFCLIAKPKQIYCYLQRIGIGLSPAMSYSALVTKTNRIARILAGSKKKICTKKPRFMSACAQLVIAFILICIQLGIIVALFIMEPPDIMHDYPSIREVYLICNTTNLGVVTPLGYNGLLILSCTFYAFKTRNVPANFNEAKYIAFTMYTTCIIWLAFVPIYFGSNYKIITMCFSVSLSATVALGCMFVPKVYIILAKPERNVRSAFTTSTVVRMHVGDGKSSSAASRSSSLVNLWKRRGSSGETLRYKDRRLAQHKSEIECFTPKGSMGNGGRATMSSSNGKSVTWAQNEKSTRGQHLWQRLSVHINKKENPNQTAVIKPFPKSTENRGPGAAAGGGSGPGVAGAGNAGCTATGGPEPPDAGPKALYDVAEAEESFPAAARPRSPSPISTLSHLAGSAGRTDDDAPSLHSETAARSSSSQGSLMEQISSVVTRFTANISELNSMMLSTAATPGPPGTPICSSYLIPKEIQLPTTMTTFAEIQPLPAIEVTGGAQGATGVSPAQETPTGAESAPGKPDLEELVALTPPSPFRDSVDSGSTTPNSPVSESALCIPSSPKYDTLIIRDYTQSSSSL
T1 sequence (P41594 21-1212): as the sequence (P41594 21-1212) above

| Structure (SMILES) | Ki [3] [nM] | Emax [4] [%] | also measured |
| --- | --- | --- | --- |
| Cc1nccc(C(=O)N[C@@H]2CCC[C@@]3(CCN(c4cc(F)cc(F)c4)C3=O)C2)n1 [Example 82, 2-Methyl-pyrimidine-4-carboxylic acid [(5R,7R)-2-(3,5-difluoro-phenyl)-1-oxo-2-aza-spiro[4.5]dec-7-yl]-amide] | – | – | activity in the Vogel Conflict Test ([1]; 10 mpk (p.o.)): significant activity; Emax [2]: 73 to 95% |
| O=C(N[C@H]1CCC[C@]2(CCN(c3cccc(Cl)c3)C2=O)C1)c1ccccn1 (racemic) [Example 2, cis-pyridine-2-carboxylic acid [2-(3-chloro-phenyl)-1-oxo-2-aza-spiro[4.5]dec-7-yl]-amide] | 250 | 81 to 99 | – |
| CNCCC(Oc1ccc(C(F)(F)F)cc1)c1ccccc1 (stereo not drawn) [fluoxetine] | – | – | effect on anxiety- and depression-like effects of seven weeks corticosterone in the OF, NSF and FST (C57BL/6NTac mice; 18 mg/kg/day ip): reversed the anxiety- and depression-like effects |
| Cc1cccc(C(=O)N[C@H]2CCC[C@]3(CCN(c4cccc(Cl)c4)C3=O)C2)n1 (relative stereo) [Example 4, cis-6-Methyl-pyridine-2-carboxylic acid [2-(3-chloro-phenyl)-1-oxo-2-aza-spiro[4.5]dec-7-yl]-amide] | 74 | 81 to 99 | – |
| Cc1cccc(C(=O)N[C@H]2CCC[C@]3(CCN(c4cccc(C)n4)C3=O)C2)n1 (relative stereo) [Example 23, cis-6-Methyl-pyridine-2-carboxylic acid [2-(6-methyl-pyridin-2-yl)-1-oxo-2-aza-spiro[4.5]dec-7-yl]-amide] | 190 | 81 to 99 | – |
| Cc1nccc(N2CC[C@@]3(CCC[C@@H](NC(=O)c4cccc(F)c4)C3)C2=O)n1 [Example 147, 3-Fluoro-N-[(5R,7R)-2-(2-methyl-pyrimidin-4-yl)-1-oxo-2-aza-spiro[4.5]dec-7-yl]-benzamide] | – | – | activity in the Vogel Conflict Test ([1]; 3 mpk (p.o.)): significant activity; activity in the Vogel Conflict Test ([1]; 10 mpk (p.o.)): significant activity; activity in the Vogel Conflict Test ([1]; 30 mpk (p.o.)): significant activity; Emax [2]: 47 to 93% |
| O=C(N[C@@H]1CCC[C@@]2(CCN(c3cccc(Cl)c3)C2=O)C1)c1ccccn1 (single isomer, unassigned) [Example 5] | 95 | 81 to 99 | in vivo anxiolytic effect in mouse marble burying (male CD1 mice): statistically significant in vivo anxiolytic effect |
| O=C(N[C@@H]1CCC[C@@]2(CCN(c3cccc(F)c3)C2=O)C1)c1ccccn1 [Example 25, Pyridine-2-carboxylic acid [(5R,7R)-2-(3-fluoro-phenyl)-1-oxo-2-aza-spiro [4.5]dec-7-yl]-amide] | 130 | 81 to 99 | activity in the Vogel Conflict Test ([1]; 30 mpk (p.o.)): significant activity |
| CN(C)CCCN1c2ccccc2CCc2ccccc21 [imipramine] | – | – | effect on anxiety- and depression-like effects of seven weeks corticosterone in the OF, NSF and FST (C57BL/6NTac mice; 40 mg/kg/day ip): reversed the anxiety- and depression-like effects |
| Cc1cncc(N2CC[C@]3(CCC[C@H](NC(=O)c4cccc(F)c4)C3)C2=O)n1 (relative stereo) [Example 38, cis-3-Fluoro-N-[2-(6-methyl-pyrazin-2-yl)-1-oxo-2-aza-spiro[4.5]dec-7-yl]-benzamide] | – | 81 to 99 | – |
| O=C(N[C@H]1CCC[C@]2(CCN(c3cc(F)cc(F)c3)C2=O)C1)c1cnccn1 (relative stereo) [Example 56, cis-Pyrazine-2-carboxylic acid [2-(3,5-difluoro-phenyl)-1-oxo-2-aza-spiro [4.5]dec-7-yl]-amide] | – | 81 to 99 | – |
| Cc1cccc(C(=O)N[C@H]2CCC[C@]3(CCN(c4ccc(F)cc4)C3=O)C2)n1 (racemic) [Example 44, cis-6-Methyl-pyridine-2-carboxylic acid [2-(4-fluoro-phenyl)-1-oxo-2-aza-spiro[4.5]dec-7-yl]-amide] | – | 81 to 99 | – |
| Cc1cccc(C(=O)N[C@H]2CCC[C@]3(CCN(c4cc(F)ccn4)C3=O)C2)n1 (relative stereo) [Example 32, cis-6-Methyl-pyridine-2-carboxylic acid [2-(4-fluoro-pyridin-2-yl)-1-oxo-2-aza-spiro[4.5]dec-7-yl]-amide] | – | 81 to 99 | – |
| Cc1cncc(C(=O)N[C@H]2CCC[C@]3(CCN(c4cccc(F)c4)C3=O)C2)n1 (relative stereo) [Example 21, cis-6-Methyl-pyrazine-2-carboxylic acid [2-(3-fluoro-phenyl)-1-oxo-2-aza-spiro [4.5]dec-7-yl]-amide] | – | 81 to 99 | – |
| Cc1cccc(C(=O)N[C@H]2CCC[C@@]3(CCN(c4cccc(Cl)c4)C3=O)C2)n1 (relative stereo) [Example 3, trans-6-Methyl-pyridine-2-carboxylic acid [2-(3-chloro-phenyl)-1-oxo-2-aza-spiro [4.5]dec-7-yl]-amide] | – | 81 to 99 | – |
| Cc1cccc(C(=O)N[C@H]2CCC[C@]3(CCN(c4ccccn4)C3=O)C2)n1 [Example 45, 6-Methyl-pyridine-2-carboxylic acid (1-oxo-2-pyridin-2-yl-2-aza-spiro[4.5]dec-7-yl)-amide] | – | 81 to 99 | – |
